Test results reported in ChEMBL document CHEMBL1127383, “Improved binding affinity for cyclophilin A by a cyclosporin derivative singly modified at its effector domain” (J Med Chem, 1994).

Columns and labels:
Mus musculus = organism: Mus musculus; assay: Compound was evaluated for in vitro immunosuppressive activity in the mouse mixed lymphocyte reaction (MLR-M); assay type: functional
[1] = target: Peptidyl-prolyl cis-trans isomerase A (Homo sapiens, UniProt P62937); assay: Compound was evaluated for in vitro binding affinity to cyclophilin A (CyP-A)
Chain of Peptidyl-prolyl cis-trans isomerase A (P62937 whole entry): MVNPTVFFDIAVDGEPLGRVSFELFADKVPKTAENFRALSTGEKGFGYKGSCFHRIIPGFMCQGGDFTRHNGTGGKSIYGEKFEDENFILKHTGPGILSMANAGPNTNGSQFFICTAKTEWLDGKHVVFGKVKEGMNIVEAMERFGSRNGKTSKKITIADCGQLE

[2] = Compound was evaluated for in vitro immunosuppressive activity in the interleukin-2 reporter gene assay (IL2-RG); assay type: functional

| IC50 (Mus musculus) | IC50 [1] | IC50 [2] | SMILES |
| --- | --- | --- | --- |
| 46 nM | 16 nM | 14 nM | C/C=C/C[C@@H](C)[C@@H](O)[C@H]1C(=O)N[C@@H](CC)C(=O)N(C)CC(=O)N(C)[C@@H](C[C@@H](C)CC)C(=O)N[C@@H](C(C)C)C(=O)N(C)[C@@H](CC(C)C)C(=O)N[C@@H](C)C(=O)N[C@H](C)C(=O)N(C)[C@@H](CC(C)C)C(=O)N(C)[C@@H](CC(C)C)C(=O)N(C)[C@@H](C(C)C)C(=O)N1C |
| 45 nM | 2.3 nM | 17 nM | C/C=C/C[C@@H](C)[C@@H](O)[C@H]1C(=O)NC(CC)C(=O)N(C)CC(=O)N(C)[C@@H](C[C@@H](C)CC)C(=O)N[C@@H](C(C)C)C(=O)N(C)[C@@H](CC(C)C)C(=O)N[C@@H](C)C(=O)N[C@H](C)C(=O)N(C)[C@@H](CC(C)C)C(=O)N(C)[C@@H](CC(C)C)C(=O)N(C)C(C(C)C)C(=O)N1C (single isomer, unassigned) |
